Reference: the supplement of paper PMC10307832

Tests used:
Assay in all cases: relative viability (nuclei count vs DMSO), 5 days (fraction); higher = more cells survive
[1] = system: CAL-12T
Summary of the method: (§1)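 Lung cancer cell lines were seeded in 1536-well plates and dosed by pin tool the next day, with either a single drug or a fixed anchor-drug dose combined with five library-drug doses (not always all listed) spaced in √10 steps. Five days later, one step fixed the cells and stained their nuclei (final 0.05% Triton X-100, 1% formaldehyde, 1 ug/ml Hoechst), and nuclei were counted on 4× images. Relative viability is the nuclei count in treated wells divided by the count in vehicle wells, and each value is the median of duplicate plates.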

[2] = system: COR-L 105
Summary of the method: as §1

[3] = system: H3255
Summary of the method: as §1

[4] = system: HARA
Summary of the method: as §1

[5] = system: HCC-15
Summary of the method: as §1

[6] = system: HCC-366
Summary of the method: as §1

[7] = system: LC-2-ad
Summary of the method: as §1

[8] = system: LU99A
Summary of the method: as §1

[9] = system: NCI-H1437
Summary of the method: as §1

[10] = system: NCI-H1648
Summary of the method: as §1

[11] = system: NCI-H1666
Summary of the method: as §1

[12] = system: NCI-H1734
Summary of the method: as §1

[13] = system: NCI-H1915
Summary of the method: as §1

[14] = system: NCI-H1944
Summary of the method: as §1

[15] = system: NCI-H2347
Summary of the method: as §1

[16] = system: NCI-H460
Summary of the method: as §1

[17] = system: NCI-H650
Summary of the method: as §1

[18] = system: NCI-H727
Summary of the method: as §1

[19] = system: NCI-H838
Summary of the method: as §1

[20] = system: PC-14
Summary of the method: as §1

[21] = system: RERF-LC-KJ
Summary of the method: as §1

[22] = system: SW 900
Summary of the method: as §1

SMILES: C=C1C(=O)O[C@@H](CCCCCCCC)[C@@H]1C(=O)O [C-75] + CC(=O)Nc1cccc(-n2c(=O)n(C3CC3)c(=O)c3c(Nc4ccc(I)cc4F)n(C)c(=O)c(C)c32)c1 [Trametinib] (partner 0.02 µM)
- relative viability ([1]; first compound 0.08 µM): 0.373
- relative viability ([1]; first compound 0.253 µM): 0.455
- relative viability ([1]; first compound 0.8 µM): 0.31
- relative viability ([1]; first compound 2.53 µM): 0.301
- relative viability ([1]; first compound 8 µM): 0.313
- relative viability ([2]; first compound 0.08 µM): 0.425
- relative viability ([2]; first compound 0.253 µM): 0.458
- relative viability ([2]; first compound 0.8 µM): 0.428
- relative viability ([2]; first compound 2.53 µM): 0.427
- relative viability ([2]; first compound 8 µM): 0.497
- relative viability ([3]; first compound 0.08 µM): 0.66
- relative viability ([3]; first compound 0.253 µM): 0.613
- relative viability ([3]; first compound 0.8 µM): 0.647
- relative viability ([3]; first compound 2.53 µM): 0.543
- relative viability ([3]; first compound 8 µM): 0.666
- relative viability ([4]; first compound 0.08 µM): 0.662
- relative viability ([4]; first compound 0.253 µM): 0.931
- relative viability ([4]; first compound 0.8 µM): 0.766
- relative viability ([4]; first compound 2.53 µM): 0.587
- relative viability ([4]; first compound 8 µM): 0.646
- relative viability ([5]; first compound 0.08 µM): 0.387
- relative viability ([5]; first compound 0.253 µM): 0.366
- relative viability ([5]; first compound 0.8 µM): 0.375
- relative viability ([5]; first compound 2.53 µM): 0.33
- relative viability ([5]; first compound 8 µM): 0.426
- relative viability ([6]; first compound 0.08 µM): 0.356
- relative viability ([6]; first compound 0.253 µM): 0.426
- relative viability ([6]; first compound 0.8 µM): 0.327
- relative viability ([6]; first compound 2.53 µM): 0.285
- relative viability ([6]; first compound 8 µM): 0.326
- relative viability ([7]; first compound 0.08 µM): 0.883
- relative viability ([7]; first compound 0.253 µM): 0.954
- relative viability ([7]; first compound 0.8 µM): 0.832
- relative viability ([7]; first compound 2.53 µM): 0.861
- relative viability ([7]; first compound 8 µM): 0.926
- relative viability ([8]; first compound 0.08 µM): 0.526
- relative viability ([8]; first compound 0.253 µM): 0.528
- relative viability ([8]; first compound 0.8 µM): 0.475
- relative viability ([8]; first compound 2.53 µM): 0.562
- relative viability ([8]; first compound 8 µM): 0.527
- relative viability ([9]; first compound 0.08 µM): 0.514
- relative viability ([9]; first compound 0.253 µM): 0.699
- relative viability ([9]; first compound 0.8 µM): 0.454
- relative viability ([9]; first compound 8 µM): 0.586
- relative viability ([10]; first compound 0.08 µM): 0.435
- relative viability ([10]; first compound 0.253 µM): 0.658
- relative viability ([10]; first compound 0.8 µM): 0.447
- relative viability ([10]; first compound 8 µM): 0.443
- relative viability ([11]; first compound 0.08 µM): 0.869
- relative viability ([11]; first compound 0.253 µM): 1.01
- relative viability ([11]; first compound 0.8 µM): 0.807
- relative viability ([11]; first compound 8 µM): 0.728
- relative viability ([12]; first compound 0.08 µM): 0.664
- relative viability ([12]; first compound 0.253 µM): 0.78
- relative viability ([12]; first compound 0.8 µM): 0.664
- relative viability ([12]; first compound 2.53 µM): 0.524
- relative viability ([12]; first compound 8 µM): 0.691
- relative viability ([13]; first compound 0.08 µM): 0.323
- relative viability ([13]; first compound 0.253 µM): 0.288
- relative viability ([13]; first compound 0.8 µM): 0.32
- relative viability ([13]; first compound 2.53 µM): 0.273
- relative viability ([13]; first compound 8 µM): 0.359
- relative viability ([14]; first compound 0.08 µM): 0.397
- relative viability ([14]; first compound 0.253 µM): 0.465
- relative viability ([14]; first compound 0.8 µM): 0.361
- relative viability ([14]; first compound 2.53 µM): 0.367
- relative viability ([14]; first compound 8 µM): 0.371
- relative viability ([15]; first compound 0.08 µM): 0.296
- relative viability ([15]; first compound 0.253 µM): 0.193
- relative viability ([15]; first compound 0.8 µM): 0.317
- relative viability ([15]; first compound 2.53 µM): 0.26
- relative viability ([15]; first compound 8 µM): 0.365
- relative viability ([16]; first compound 0.08 µM): 0.215
- relative viability ([16]; first compound 0.253 µM): 0.178
- relative viability ([16]; first compound 0.8 µM): 0.123
- relative viability ([16]; first compound 2.53 µM): 0.104
- relative viability ([16]; first compound 8 µM): 0.151
- relative viability ([17]; first compound 0.08 µM): 0.965
- relative viability ([17]; first compound 0.253 µM): 0.961
- relative viability ([17]; first compound 0.8 µM): 0.967
- relative viability ([17]; first compound 2.53 µM): 0.768
- relative viability ([17]; first compound 8 µM): 1
- relative viability ([18]; first compound 0.08 µM): 0.377
- relative viability ([18]; first compound 0.253 µM): 0.378
- relative viability ([18]; first compound 0.8 µM): 0.448
- relative viability ([18]; first compound 2.53 µM): 0.393
- relative viability ([18]; first compound 8 µM): 0.352
- relative viability ([19]; first compound 0.08 µM): 0.524
- relative viability ([19]; first compound 0.253 µM): 0.292
- relative viability ([19]; first compound 0.8 µM): 0.456
- relative viability ([19]; first compound 2.53 µM): 0.422
- relative viability ([19]; first compound 8 µM): 0.388
- relative viability ([20]; first compound 0.08 µM): 0.902
- relative viability ([20]; first compound 0.253 µM): 0.811
- relative viability ([20]; first compound 0.8 µM): 0.724
- relative viability ([20]; first compound 2.53 µM): 0.78
- relative viability ([20]; first compound 8 µM): 0.731
- relative viability ([21]; first compound 0.08 µM): 0.874
- relative viability ([21]; first compound 0.253 µM): 0.945
- relative viability ([21]; first compound 0.8 µM): 0.925
- relative viability ([21]; first compound 2.53 µM): 0.918
- relative viability ([21]; first compound 8 µM): 0.866
- relative viability ([22]; first compound 0.08 µM): 1.01
- relative viability ([22]; first compound 0.253 µM): 0.936
- relative viability ([22]; first compound 0.8 µM): 0.848
- relative viability ([22]; first compound 2.53 µM): 0.71
- relative viability ([22]; first compound 8 µM): 0.829
